Consider 17 molecules from ChEMBL document CHEMBL1126373, “HIV and reverse transcriptase inhibition by tannins” (Bioorg Med Chem Lett, 1992).

The test system of series [1] is Human immunodeficiency virus 1. In words: Anti-HIV activity in cell culture assay expressed as EC50 values. As to conditions: Human immunodeficiency virus 1. The class given is functional, organism-based.
The subject of series [2] is Human immunodeficiency virus 1. Briefly: Anti-HIV activity in cell culture assay expressed as IC50 values. As to conditions: Human immunodeficiency virus 1. It is filed as functional, organism-based.
For series [3], the target named is Human immunodeficiency virus type 1 reverse transcriptase (Human immunodeficiency virus 1) (UniProt Q72547). In words: Inhibition against HIV- reverse transcriptase in cell culture at 20 ug/mL.
The subject of series [4] is Human immunodeficiency virus 1. Briefly: Therapeutic index was determined. The conditions noted are these: read-out: Therapeutic index.
The test system of series [5] is Human immunodeficiency virus 1. Briefly: Inhibition against HIV replication in cell culture at 20 ug/mL. As to conditions: Human immunodeficiency virus 1. It is filed as functional.

Some results are limits rather than exact numbers.

Usually EC50 stands for the concentration that produces a half-maximal response. Low values mean a more potent agent, high ones a less potent agent. As a reminder, the IC50 is the concentration at which inhibition is half-maximal. Read a high IC50 as a need for much substance. In general, inhibition refers to the drop in the measured response relative to a control, in per cent. A high value points to strong suppression. In series [1], `O=C1O[C@H]2[C@@H]3OC(=O)c4cc(O)c(O)c(O)c4-c4c(cc(O)c(O)c4O)C(=O)OC[C@H]2O[C@@H](OC(=O)c2cc(O)c(O)c(O)c2)[C@@H]3OC(=O)c2cc(O)c(O)c3c2[C@@H]2C1=CC(=O)C(O)(O)C2(O)O3` (stereo not given in full) showed an EC50 of 12 µM. This molecule yielded an IC50 in series [2] of 14 µM. In series [3], the inhibition came out at 15%. Moreover, the selectivity ratio in series [4] came out at 1.2. The same molecule registered an inhibition at 20 µg/mL in series [5] of 92%.

In turn, `O=C(O[C@@H]1O[C@@H]2COC(=O)c3cc(O)c(O)c(O)c3-c3c(cc(O)c(O)c3O)C(=O)O[C@H]([C@H]1O)[C@@H]2O)c1cc(O)c(O)c(O)c1` [CORILAGIN] gave an EC50 in series [1] of 15 µM. In series [2], the IC50 was 15 µM. In series [3], this molecule gave an inhibition of 57%. In series [4], the selectivity ratio stood at 1. Further, 20 µg/mL produced 90% inhibition in series [5].

On to `O=C(O)C1=C[C@@H](O)[C@@H](O)[C@H](OC(=O)c2cc(O)c(O)c(O)c2)C1`, for which, in series [1], the EC50 came to 18 µM. This molecule also showed an IC50 in series [2] of 25 µM. The same molecule showed an inhibition in series [3] of 0%. The selectivity ratio in series [4] was 1.4. The molecule also showed an inhibition at 20 µg/mL in series [5] of 90%.

Molecule `O=C(O[C@H]1[C@H](O)C[C@](OC(=O)c2cc(O)c(O)c(O)c2)(C(=O)O)C[C@H]1O)c1cc(O)c(O)c(O)c1` returned an EC50 in series [1] of 25 µM. In series [2], this molecule came in with an IC50 of 45 µM. Further, the inhibition in series [3] amounted to 0%. Also, the selectivity ratio in series [4] is 1.8. For the same molecule, at 20 µg/mL the inhibition in series [5] was 65%.

On to `Oc1cc(O)c2c(c1)O[C@H](c1ccc(O)c(O)c1)[C@H](O)[C@H]2c1c(O)cc(O)c2c1O[C@H](c1ccc(O)c(O)c1)[C@H](O)[C@H]2c1c(O)cc(O)c2c1O[C@H](c1ccc(O)c(O)c1)[C@H](O)C2` [PROCYANIDIN C1], for which the EC50 in series [1] was over 25 µM. Moreover, the IC50 in series [2] was over 25 µM. The same molecule registered an inhibition in series [3] of 18%. Moreover, in series [4], the selectivity ratio is over 1. In series [5], this molecule returned an inhibition at 20 µg/mL of 68%.

For `O=C1O[C@H]2[C@H](O)[C@@H](OC(=O)c3cc(O)c(O)c4c3[C@@H]3C1=CC(=O)C(O)(O)C3(O)O4)[C@H](OC(=O)c1cc(O)c(O)c(O)c1)O[C@@H]2CO` (stereo not given in full) [FUROSIN], in series [1], the EC50 was found to be 50 µM. For the same molecule, inhibition in series [2] was half-maximal at 70 µM (IC50). Further, the inhibition in series [3] was determined as 38%. Moreover, the selectivity ratio in series [4] worked out at 1.4. Also, testing at 20 µg/mL in series [5] gave an inhibition of 33%.

The molecule `O=C(O[C@@H]1O[C@@H]2COC(=O)c3cc(O)c(O)c(O)c3-c3c(cc(O)c(O)c3O)C(=O)O[C@H]([C@H]1OC(=O)c1cc(O)c(O)c(O)c1)[C@@H]2OC(=O)c1cc(O)c(O)c(O)c1)c1cc(O)c(O)c(O)c1` [PUNICAFOLIN] had an EC50 in series [1] of 19 µM. The IC50 in series [2] worked out at 34 µM. The molecule further came in with an inhibition in series [3] of 0%. Moreover, in series [4], the selectivity ratio was 1.8. Also, the inhibition at 20 µg/mL in series [5] stood at 60%.

`O=C1O[C@H]2[C@H](OC(=O)c3cc(O)c(O)c(O)c3)[C@@H](OC(=O)c3cc(O)c(O)c4c3[C@@H]3C1=CC(=O)C(O)(O)C3(O)O4)[C@H](OC(=O)c1cc(O)c(O)c(O)c1)O[C@@H]2COC(=O)c1cc(O)c(O)c(O)c1` (stereo not given in full) [TERCHEBIN]: the response in series [1] was half-maximal at 21 µM (EC50). This molecule gave an IC50 in series [2] of 40 µM. The molecule also gave an inhibition in series [3] of 13%. The selectivity ratio in series [4] was found to be 1.9. Moreover, at 20 µg/mL the inhibition in series [5] was 50%.

The molecule `O=C1OCC2OC(=O)c3cc(O)c(O)c(O)c3-c3c(O)c(O)c(O)c4c3C(=O)OC(C2OC(=O)c2cc(O)c(O)c(O)c2-c2c1cc(O)c(O)c2O)C1OC(=O)c2c-4c(O)c(O)c(O)c2[C@H]1O` (stereo not given in full) registered an EC50 in series [1] of 16 µM. In addition, in series [2], half-maximal inhibition (IC50) was put at 15 µM. The inhibition in series [3] stood at 45%. Moreover, the selectivity ratio in series [4] was determined as 0.9. The inhibition at 20 µg/mL in series [5] was 90%.

Take `CC1(C)CC[C@]2(C(=O)O)CC[C@]3(C)C(=CCC4[C@@]5(C)C[C@@H](O)[C@@H]6OC(=O)c7cc(O)c(O)c(O)c7-c7c(cc(O)c(O)c7O)C(=O)OC[C@@]6(CO)C5CC[C@]43C)C2C1` (stereo not given in full): a half-maximal response in series [1] (EC50) required 40 µM. The IC50 in series [2] came to 40 µM. Besides, the inhibition in series [3] was 18%. The selectivity ratio in series [4] worked out at 1. For the same molecule, 20 µg/mL produced 23% inhibition in series [5].

For the molecule `O=C1c2c(O)cc(O)cc2O[C@H](c2ccc(O)c(O)c2)[C@H]1O` [(+)-TAXIFOLIN], the EC50 in series [1] is 45 µM. The same molecule showed an IC50 in series [2] of 45 µM. In series [3], this molecule came in with an inhibition of 22%. For the same molecule, the selectivity ratio in series [4] stood at 1. The inhibition at 20 µg/mL in series [5] is 40%.

Take `O=C(O[C@H]1[C@H](O)C[C@](O)(C(=O)O)C[C@H]1O)c1cc(O)c(O)c(O)c1`: the EC50 in series [1] is over 100 µM. In series [2], this molecule yielded an IC50 of 80 µM. In addition, the inhibition in series [3] was 0%. Also, the selectivity ratio in series [4] was under 0.8. In addition, in series [5], the inhibition at 20 µg/mL was found to be 0%.

Molecule `O=C(O)C1=C[C@@H](O)[C@@H](O)[C@H](OC(=O)c2cc(O)c(O)c(OC(=O)c3cc(O)c(O)c(O)c3)c2)C1` gave a half-maximal effective concentration (EC50) in series [1] of 30 µM. For the same molecule, it took 40 µM to reach half-maximal inhibition in series [2] (IC50). The molecule further returned an inhibition in series [3] of 31%. Further, the selectivity ratio in series [4] was determined as 1.3. Further, at 20 µg/mL the inhibition in series [5] was 60%.

With `O=C(O[C@@H]1[C@@H](c2c(O)cc(O)c3c2O[C@H](c2ccc(O)c(O)c2)[C@H](OC(=O)c2cc(O)c(O)c(O)c2)C3)c2c(O)cc(O)c([C@H]3c4c(O)cc(O)cc4O[C@H](c4ccc(O)c(O)c4)[C@@H]3OC(=O)c3cc(O)c(O)c(O)c3)c2O[C@@H]1c1ccc(O)c(O)c1)c1cc(O)c(O)c(O)c1`, in series [1], the EC50 amounted to 17 µM. Besides, the IC50 in series [2] is over 25 µM. This molecule also returned an inhibition in series [3] of 13%. Moreover, in series [4], the selectivity ratio is over 1.5. In series [5], this molecule displayed an inhibition at 20 µg/mL of 47%.

In series [1], `O=C(O[C@@H]1O[C@H]2COC(=O)c3cc(O)c(O)c(O)c3-c3c(O)c(O)c(O)c(Oc4cc(C(=O)O[C@H]5O[C@H]6COC(=O)c7cc(O)c(O)c(O)c7-c7c(cc(O)c(O)c7O)C(=O)O[C@H]6[C@@H]6OC(=O)c7cc(O)c(O)c(O)c7-c7c(cc(O)c(O)c7O)C(=O)O[C@H]56)cc(O)c4O)c3C(=O)O[C@H]2[C@@H]2OC(=O)c3cc(O)c(O)c(O)c3-c3c(cc(O)c(O)c3O)C(=O)O[C@H]12)c1cc(O)c(O)c(O)c1` yielded an EC50 of 15 µM. The same molecule came in with an IC50 in series [2] of 21 µM. In addition, the inhibition in series [3] is 34%. Moreover, the selectivity ratio in series [4] worked out at 1.4. Also, at 20 µg/mL the inhibition in series [5] was 38%.

For `O=C(OC[C@H]1O[C@@H](OC(=O)c2cc(O)c(O)c(O)c2)[C@H](OC(=O)c2cc(O)c(O)c(O)c2)[C@@H](O)[C@@H]1O)c1cc(O)c(O)c(O)c1`, the EC50 in series [1] came out at 50 µM. In series [2], this molecule yielded an IC50 of 19 µM. Further, in series [3], the inhibition was found to be 16%. Moreover, the selectivity ratio in series [4] is 0.4. Also, in series [5], the inhibition at 20 µg/mL was determined as 20%.

With `O=C1OCC2OC(=O)c3cc(O)c(O)c(O)c3-c3c(O)c(O)c(O)c4c3C(=O)OC(C2OC(=O)c2cc(O)c(O)c(O)c2-c2c1cc(O)c(O)c2O)C1OC(=O)c2c-4c(O)c(O)c(O)c2[C@@H]1c1c(O)cc(O)c2c1O[C@H](c1ccc(O)c(O)c1)[C@@H](O)C2` (stereo not given in full), the midpoint of the response in series [1], the EC50, lay at 4 µM. The molecule further displayed an IC50 in series [2] of 15 µM. The same molecule came in with an inhibition in series [3] of 24%. In addition, the selectivity ratio in series [4] came out at 3.8. In series [5], this molecule displayed an inhibition at 20 µg/mL of 88%.
